Assay results as given in patent US6528517B1, “Synthesis of quinobenzoxazine analogues with topoisomerase II and quadruplex interactions for use as antineoplastic agents” (Board of Regents, The University of Texas System, priority 1998, dated 2003).

What was measured:
[1] = test system: human DNA G-quadruplex d(TTAGGG)4; experiment: NMR imino proton titration with G-quadruplex DNA; type: binding; details: overall stoichometry 1:1
Description: (C) Compounds may be selected for their ability to interact with human DNA G-quadruplex as indicated by NMR spectroscopy. The imino proton spectrum (9-12 ppm) of a solution of d(TTAGGG)4 in D2O/H2O (10:90) was determined at 500 MHz. Aliquot of N,N′-bis(2-piperdinoethyl)-3,4,9,10-perylenetetracarboxylic acid diimide were added and the imino proton spectrum recorded.

[2] = test system: prostate cell line DU-145; experiment: Cytotoxicity of III in combination with Norfloxacin; type: cell-based; details: given alone
Description: FIG. 11. Effect of increasing concentrations of Norfloxacin on the cytotoxic effect of QQ58, compound III in FIG. 2 in the prostate cell line DU-145. Compound III was either given alone (●) or in combination with Norfloxacin at concentrations of 2.58 (♦), 19.37 (♦), or 87.33 (▪) μg/ml. For additions of 2.58 and 19.37 μ/ml of Norfloxacin, the IC50 of compound III was increased by approximately 14- and 20-fold.
Exponentially growing cells in 0.1 ml medium were seeded on Day 0 in 96-well microtiter plates. On Day 1, 0.1-ml aliquots of medium containing graded concentrations test agent were added in duplicate to the cell plates. After incubation at 37° C. in a humidified incubator, the plates were centrifuged briefly (1-2 min at 1000 rpm), and 100 μl of the growth medium was removed. Cell cultures were incubated with 50 μl of 3-(4,5-dimethylthiazyl-2-yl)-2,5-diphenyltetrazolium bromide MTT, 1 mg/ml in Dubecco's PBS for 4 h at 37° C. […] Absorbance was quantitated using a Bio-Rad Model 3550 microplate reader at a test wavelength of 570 nm and a reference wavelength of 630 nm. Absorbance values were transferred to a 486 personal computer, and the IC50 values were determined using the computer program EZ-ED50 (Chen et al., 1993).
In separate studies, the IC50 of III and the IC10, IC20, and IC50 of Norfloxacin were determined for DU-145, a prostate cell line.

topo II-DNA complex [3] = target: T1, topo II-DNA complex (Drosophila melanogaster, UniProt P15348); experiment: Psorospermin competition study (DNA strand breakage assay); type: biochemical; details: 0.5-10 μM drug, psorospermin, topo II present
T1 construct: purchased Amersham
T1 sequence (P15348 1-1447): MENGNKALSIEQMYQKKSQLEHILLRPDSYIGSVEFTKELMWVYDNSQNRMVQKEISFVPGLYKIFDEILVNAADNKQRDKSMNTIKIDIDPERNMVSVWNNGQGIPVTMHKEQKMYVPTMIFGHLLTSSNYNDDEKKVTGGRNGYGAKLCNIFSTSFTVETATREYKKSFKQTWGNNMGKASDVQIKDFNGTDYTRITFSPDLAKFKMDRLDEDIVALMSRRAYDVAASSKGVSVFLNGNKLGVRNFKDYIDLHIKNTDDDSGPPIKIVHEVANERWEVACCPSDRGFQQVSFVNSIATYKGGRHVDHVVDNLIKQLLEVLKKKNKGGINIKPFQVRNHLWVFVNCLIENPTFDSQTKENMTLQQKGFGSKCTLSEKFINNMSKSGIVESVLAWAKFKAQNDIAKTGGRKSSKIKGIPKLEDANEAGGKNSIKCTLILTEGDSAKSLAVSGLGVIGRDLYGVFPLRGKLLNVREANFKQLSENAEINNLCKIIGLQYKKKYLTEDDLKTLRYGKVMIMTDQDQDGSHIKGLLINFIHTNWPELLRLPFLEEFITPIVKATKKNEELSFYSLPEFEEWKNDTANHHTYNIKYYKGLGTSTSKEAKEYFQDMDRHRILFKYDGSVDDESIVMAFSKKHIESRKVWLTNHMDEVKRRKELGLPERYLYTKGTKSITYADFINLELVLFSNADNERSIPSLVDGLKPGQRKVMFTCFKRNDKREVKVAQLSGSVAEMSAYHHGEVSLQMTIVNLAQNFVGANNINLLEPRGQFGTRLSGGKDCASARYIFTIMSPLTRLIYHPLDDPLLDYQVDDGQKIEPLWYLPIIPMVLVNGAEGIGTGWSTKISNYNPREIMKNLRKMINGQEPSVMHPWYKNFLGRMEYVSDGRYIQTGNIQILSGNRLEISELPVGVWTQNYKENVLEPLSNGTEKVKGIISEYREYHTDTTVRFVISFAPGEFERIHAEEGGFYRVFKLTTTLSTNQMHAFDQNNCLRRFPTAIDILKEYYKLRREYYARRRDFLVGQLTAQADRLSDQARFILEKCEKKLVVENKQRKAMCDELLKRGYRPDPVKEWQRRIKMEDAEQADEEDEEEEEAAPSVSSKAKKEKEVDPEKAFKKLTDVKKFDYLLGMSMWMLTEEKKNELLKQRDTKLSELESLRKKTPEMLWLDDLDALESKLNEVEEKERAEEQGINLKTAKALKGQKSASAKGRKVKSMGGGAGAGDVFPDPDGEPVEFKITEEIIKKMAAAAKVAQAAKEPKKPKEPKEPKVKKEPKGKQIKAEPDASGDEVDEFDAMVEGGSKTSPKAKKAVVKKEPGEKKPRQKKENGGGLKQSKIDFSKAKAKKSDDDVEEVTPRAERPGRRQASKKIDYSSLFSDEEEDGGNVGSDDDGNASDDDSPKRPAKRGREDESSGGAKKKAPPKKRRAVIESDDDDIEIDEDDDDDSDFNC
Description: 5′^32P-labeled DNA was incubated with Drosophila topo II in the same buffer as the one in the topo II cleavage reaction in the presence of various amounts of either A-62176, Norfloxacin, or both. The incubation reactions took place at 30° C. for 10 min before 10 μM (final concentration) of psorospermin was added to the mixtures. The reactions were continued for an additional 5 min and then terminated by adding 5 μg of calf thymus DNA, followed by heating at 95° C. for 15 min. In the presence of piperidine, this procedure induces strand breakage at the drug modification sites (Hansen et al., 1996). The samples were subjected to phenol/chloroform extraction followed by ethanol precipitation.
In the presence of topo II, the reactivity of psorospermin is enhanced more than 40-fold with the guanine at the +4′ position at site B in FIG. 7 (Kwok et al., 1998a and 1998b). A DNA strand breakage assay was used to locate the position of alkylation of DNA by the epoxide of psorospermin upon intercalation to the base pairs between the +1 and +2 positions at site B within the topo II-DNA complex (Kwok et al., 1998a). Psorospermin has subsequently been used to probe the binding sites for m-AMSA (Kwok et al., 1998a). In the present study, this same assay was performed to determine the binding site of A-62176 on DNA in the presence of topo II.

topo II-DNA complex [4] = target: T1, topo II-DNA complex; details: cited from earlier work

For O=C1c2ccc3c4ccc5c6c(ccc(c7ccc(c2c37)C(=O)N1CCN1CCCCC1)c64)C(=O)N(CCN1CCCCC1)C5=O [N,N′-bis(2-piperdinoethyl)-3,4,9,10-perylenetetracarboxylic acid diimide], the “upfield shift of G6 imino resonance” value [1] was > 0.2 ppm.
With CCn1cc(C(=O)O)c(=O)c2cc(F)c(N3CCNCC3)cc21 [Norfloxacin] the “potency relative to III (fold less potent)” value [2] was “at least 1000 fold” and the “psorospermin alkylation at site B (competition)” value (topo II-DNA complex [3]) was “no competition”.
For COc1cc2c(c3oc4c(O)cccc4c(=O)c13)C[C@H]([C@@]1(C)CO1)O2 [Psorospermin], the “enhancement of reactivity with guanine at +4′ position of site B in the presence of topo II” value (topo II-DNA complex [4]) is listed as “more than 40 fold”.
